Assay results published in patent publication US9635854B2, “Controlling red rice with mesotrione” (FMC Corporation, priority 2014, dated 2017).
Where two headings read alike, the source gives them in different places.

What was measured:
[1] = tested on: Rice (Oryza sativa) 'Jupiter'; settings: PRE, direct-seeded flooded rice, 28 DAT, 100 g ai/ha
Procedure: (§1) Rice (Oryza sativa) crop varieties (‘Cybonee’, ‘Jupiter’, and ‘Taggart’) and red rice (Oryza sativa) were planted in 6 inch plastic pots containing sterile top soil. Eight to ten seeds of each species were seeded at 12 o'clock, 3 o'clock, 6 o'clock or 9 o'clock around the pot. The pots were watered after planting. […] The test solutions were applied using a compressed air track spray chamber at 30 gallons per acre using a Teejet 8001E nozzle at 40 PSI, three replicates per test rate. After treatment, the pots were watered lightly and transferred to trays in a greenhouse. After the plants were two inches in height the trays were flooded with water and maintained as such for 14 days. The trays were emptied of water and the pots were maintained by regular watering for 4 more days. At 14, 21 and 28 days after treatment (DAT) the plants were evaluated versus untreated control pots containing the same rice and weeds using a scale of 0% (no control) to 100% (complete plant death).

[2] = tested on: Rice (Oryza sativa) 'Taggart'; settings: PRE, direct-seeded flooded rice
Procedure: as §1

[3] = tested on: Rice (Oryza sativa) 'Cybonee'; settings: PRE, direct-seeded flooded rice
Procedure: as §1

[4] = tested on: hemp sesbania (Sesbania herbacea); experiment: Pre-emergent weed control in direct-seeded flooded rice (Example 2); type: in vivo; settings: 28 Days After Treatment
From the text: (§2) Seeds of crops, rice (Taggart and Wells varieties) and weeds, yellow nutsedge (Cyperus esculentus), barnyardgrass (Echinochloa crus-galli), large crabgrass (Digitaria sanguinalis), hemp sesbania (Sesbania herbacea), Benghal dayflower (Commelina benghalensis), red rice (Oryza sativa) and broadleaf signalgrass (Urochloa platyphylla) were planted in two gallon pots containing top soil. Each pot was watered well before the application of mesotrione (Callisto® Herbicide from Syngenta Crop Protection).

[5] = tested on: barnyardgrass (Echinochloa crus-galli); experiment: as above; type: in vivo; settings: 28 Days After Treatment
From the text: as §2

CS(=O)(=O)c1ccc(C(=O)C2C(=O)CCCC2=O)c([N+](=O)[O-])c1 [Mesotrione, mesotrione]
Percent rice injury Jupiter [1]: 41 BC %
Percent rice injury Taggart ([2]; 14 DAT, 12.5 g ai/ha): 4 B %
Percent rice injury Taggart ([2]; 14 DAT, 25 g ai/ha): 1 B %
Percent rice injury Taggart ([2]; 14 DAT, 37.5 g ai/ha): 4 B %
Percent rice injury Taggart ([2]; 14 DAT, 50 g ai/ha): 7 B %
Percent rice injury Taggart ([2]; 14 DAT, 62.5 g ai/ha): 12 B %
Percent rice injury Taggart ([2]; 14 DAT, 75 g ai/ha): 12 B %
Percent rice injury Taggart ([2]; 14 DAT, 87.5 g ai/ha): 19 B %
Percent rice injury Taggart ([2]; 14 DAT, 100 g ai/ha): 18 B %
Percent rice injury Taggart ([2]; 21 DAT, 12.5 g ai/ha): 1 D %
Percent rice injury Taggart ([2]; 21 DAT, 25 g ai/ha): 1 D %
Percent rice injury Taggart ([2]; 21 DAT, 37.5 g ai/ha): 1 D %
Percent rice injury Taggart ([2]; 21 DAT, 50 g ai/ha): 6 D %
Percent rice injury Taggart ([2]; 21 DAT, 62.5 g ai/ha): 10 CD %
Percent rice injury Taggart ([2]; 21 DAT, 75 g ai/ha): 25 BCD %
Percent rice injury Taggart ([2]; 21 DAT, 87.5 g ai/ha): 35 BC %
Percent rice injury Taggart ([2]; 21 DAT, 100 g ai/ha): 38 B %
Percent rice injury Taggart ([2]; 28 DAT, 12.5 g ai/ha): 2 C %
Percent rice injury Taggart ([2]; 28 DAT, 25 g ai/ha): 4 C %
Percent rice injury Taggart ([2]; 28 DAT, 37.5 g ai/ha): 4 C %
Percent rice injury Taggart ([2]; 28 DAT, 50 g ai/ha): 9 C %
Percent rice injury Taggart ([2]; 28 DAT, 62.5 g ai/ha): 9 C %
Percent rice injury Taggart ([2]; 28 DAT, 75 g ai/ha): 29 BC %
Percent rice injury Taggart ([2]; 28 DAT, 87.5 g ai/ha): 42 AB %
Percent rice injury Taggart ([2]; 28 DAT, 100 g ai/ha): 53 AB %
Percent rice injury Cybonet ([3]; 14 DAT, 12.5 g ai/ha): 2 B %
Percent rice injury Cybonet ([3]; 14 DAT, 25 g ai/ha): 0 B %
Percent rice injury Cybonet ([3]; 14 DAT, 37.5 g ai/ha): 3 B %
Percent rice injury Cybonet ([3]; 14 DAT, 50 g ai/ha): 4 B %
Percent rice injury Cybonet ([3]; 14 DAT, 62.5 g ai/ha): 11 B %
Percent rice injury Cybonet ([3]; 14 DAT, 75 g ai/ha): 9 B %
Percent rice injury Cybonet ([3]; 14 DAT, 87.5 g ai/ha): 12 B %
Percent rice injury Cybonet ([3]; 14 DAT, 100 g ai/ha): 11 B %
Percent rice injury Cybonet ([3]; 21 DAT, 12.5 g ai/ha): 1 C %
Percent rice injury Cybonet ([3]; 21 DAT, 25 g ai/ha): 4 C %
Percent rice injury Cybonet ([3]; 21 DAT, 37.5 g ai/ha): 8 C %
Percent rice injury Cybonet ([3]; 21 DAT, 50 g ai/ha): 6 C %
Percent rice injury Cybonet ([3]; 21 DAT, 62.5 g ai/ha): 13 BC %
Percent rice injury Cybonet ([3]; 21 DAT, 75 g ai/ha): 32 ABC %
Percent rice injury Cybonet ([3]; 21 DAT, 87.5 g ai/ha): 44 AB %
Percent rice injury Cybonet ([3]; 21 DAT, 100 g ai/ha): 49 A %
Percent rice injury Cybonet ([3]; 28 DAT, 12.5 g ai/ha): 5 CD %
Percent rice injury Cybonet ([3]; 28 DAT, 25 g ai/ha): 7 CD %
Percent rice injury Cybonet ([3]; 28 DAT, 37.5 g ai/ha): 9 CD %
Percent rice injury Cybonet ([3]; 28 DAT, 50 g ai/ha): 7 CD %
Percent rice injury Cybonet ([3]; 28 DAT, 62.5 g ai/ha): 17 BCD %
Percent rice injury Cybonet ([3]; 28 DAT, 75 g ai/ha): 32 ABC %
Percent rice injury Cybonet ([3]; 28 DAT, 87.5 g ai/ha): 52 A %
Percent rice injury Cybonet ([3]; 28 DAT, 100 g ai/ha): 62 A %
% weed control Hemp ([4]; 6 g ai/ha): 0%
% weed control Hemp ([4]; 12 g ai/ha): 30%
% weed control Hemp ([4]; 25 g ai/ha): 13%
% weed control Hemp ([4]; 50 g ai/ha): 45%
% weed control Hemp ([4]; 100 g ai/ha): 98%
% weed control Hemp ([4]; 200 g ai/ha): 100%
% weed control Barnyardgrass ([5]; 6 g ai/ha): 10%
% weed control Barnyardgrass ([5]; 12 g ai/ha): 32%
% weed control Barnyardgrass ([5]; 25 g ai/ha): 35%
% weed control Barnyardgrass ([5]; 50 g ai/ha): 62%
% weed control Barnyardgrass ([5]; 100 g ai/ha): 82%
% weed control Barnyardgrass ([5]; 200 g ai/ha): 100%
